{"source": "patent US20250375454A1", "about": "“METHODS FOR TREATING HEPATOCELLULAR CARCINOMA” (THE HONG KONG POLYTECHNIC UNIVERSITY, priority 2024, published 2025)", "key": {"[1]": {"system": "c-Myc", "assay": "Western blot of c-Myc expression in Huh7 cells", "format": "cell-based", "details": "Huh7, 48 h treatment", "procedure": "(§1) The Huh7 cells and tumor tissues were lysed on ice using the lysis buffer. Protein concentration was quantified using Bradford assay (Bio-Rad, Hercules, CA, USA). Equivalent amounts of protein (25-50 μg) were loaded onto 10% sodium dodecyl sulfate-polyacrylamide gel electrophoresis (SDS-PAGE) and transferred to polyvinylidene fluoride (PVDF) membranes. Membranes were blocked with 5% non-fat milk in Tris-buffered saline Tween 20 (TBST) for an hour. The blots were incubated with primary antibodies (EGFR (4267S, Cell signaling technology, MA, USA), c-Myc (5605S, Cell signaling technology, MA, USA), Bax (2772S, Cell signaling technology, MA, USA), Bcl-2 (sc-7382, Santa Cruze, TX, USA), ERBB2 (2165S, Cell signaling technology, MA, USA), and α-tubulin (62204, Invitrogen, MA, USA), 1:1000) at 4° C. overnight. Subsequently, the membranes were washed thrice (15 min each) with TBST solution and incubated for 1 h with secondary horseradish peroxidase-conjugated antibodies (NA934 and NA931, Cytiva, MA, USA, 1:5000). Blots were then detected using an ECL kit and photographed using a ChemiDoc Imaging System (Bio-Rad, MA, USA). The bands were quantified using the ImageJ software (NIH, USA). The intensities of the bands for each protein sample were normalized to those of α-tubulin (internal standard protein). Quantitative data are presented as a fold change of untreated control."}, "[2]": {"system": "ERBB2", "assay": "Western blot of ERBB2 expression in Huh7 cells", "format": "cell-based", "details": "Huh7, 48 h treatment", "procedure": "as §1"}, "[3]": {"system": "PLC/PRF/5 tumor-bearing mice", "assay": "PLC/PRF/5 tumor-bearing mouse model", "format": "in vivo", "procedure": "(§2) Male BALB/c nude mice (6-8 weeks old) were obtained from the Centralized Animal Facilities at the Hong Kong Polytechnic University. All animals were bred and housed under specific pathogen-free conditions, with access to sterile food and water. Environmental conditions were strictly controlled, with temperature maintained at 23±2° C., relative humidity between 30%-70%, and a 12-hour light/dark cycle. Mice were group-housed in accordance with institutional guidelines for recommended stocking density. The animal experiments were conducted according to institutional guidelines, and the experimental procedures were approved by the PolyU Animal Experimentation Ethics Committee (Ref. No. 19-20/57-ABCT-R-STUDENT).\nPLC/PRF/5 cells (5×10^5) were suspended in 100 μL PBS with Matrigel (1:1 ratio) and injected into the right back of nude mice. Small tumors (<70 mm^3) were formed two weeks after cell inoculation. Mice were then randomized into the vehicle control group, ZAK-I-57 treated groups (15 mg/kg and 30 mg/kg), or sorafenib (30 mg/kg) groups. Mice were administered 200 μL of vehicle water and drugs by oral gavage daily for three weeks. Tumor size was measured twice a week, and tumor volumes were calculated using the formula [(length×width×depth)/2 mm^3] while each mouse was weighed. At the end of the experiment, the mice were sacrificed, and the tumors and organs were collected for further experiments.\nas §1\n(§3) Tumors were fixed in 4% formalin, embedded in paraffin, and sectioned at […] thickness for IHC staining. Ki-67 primary antibody (ab16667, Abcam, MA, USA) and anti-mouse IgG recombinant secondary antibody (7056S, Cell Signaling Technology, MA, USA) were used for IHC staining. Hemotoxin (Invitrogen, MA, USA) was used to stain nuclei. The number of positively stained cells in Ki-67-stained slides was evaluated using ImageJ software (NIH, MD, USA).\n(§4) H&E staining was performed on histological sections of organs (heart, spleen, kidney, liver, and lung) to examine the toxicity of ZAK-I-57 in PLC/PRF/5 tumor-bearing and PDTX model mice. Briefly, the histological slides were deparaffinized using 100% xylene (v/v). The slides were then washed several times with ethanol solutions of various concentrations (70-100%, v/v) and immersed in hematoxylin for 5 min, followed by a quick dip in acidic alcohol. Next, the slides were immersed in Scott's tap water for 3 min and in 1% eosin for 30 s. Finally, the slides were dehydrated using ethanol solutions of various concentrations (70%-100%, v/v) and 100% xylene (v/v) and mounted using a mounting medium."}, "[4]": {"system": "HCC PDTX mouse model", "assay": "HCC patient-derived tumor xenograft (PDTX #1) mouse model", "format": "in vivo, mice", "procedure": "as §2\nThe procedure for the establishment of PDTX #1 was previously described. Tumor cells from PDTX #1 was inoculated subcutaneously on the back of nude mice. When the tumors reached approximately 1,000 mm^3, mice with the first generation of xenografts (P1) were sacrificed, and the xenografts were isolated and expanded for the second generation (P2). When P2 xenografts reached an average volume of 70 mm^3, mice were subjected to ZAK-I-57 and sorafenib treatment. The development of PDTX was approved by the Institutional Review Board of the University of Hong Kong/Hospital Authority Hong Kong West Cluster (UW 17-056) and informed consents were obtained from patients.\nas §1, §3, §4"}, "[5]": {"details": "ZAK-I-57 15 and 30 mg/kg, sorafenib 30 mg/kg, vs vehicle control"}, "[6]": {"details": "ZAK-I-57 15 and 30 mg/kg, vs vehicle control and sorafenib 30 mg/kg"}, "[7]": {"details": "heart, liver, spleen, lung, kidney, ZAK-I-57 15 and 30 mg/kg, sorafenib 30 mg/kg"}}, "note": "Entries after “also recorded” stand apart in the source; their conditions may differ.", "data": [{"smiles": "O=c1oc(-c2ccc3ccccc3c2)nc2cc([N+](=O)[O-])ccc12", "note": "[ZAK-I-57, 2-(naphthalen-2-yl)-7-nitro-4H-3,1-benzoxazin-4-one]", "values": [{"measurement": "c-Myc expression", "setting": "[1]", "value": "significant downregulation"}, {"measurement": "ERBB2 expression", "setting": "[2]", "value": "significant downregulation"}, {"measurement": "Ki-67 suppression compared with sorafenib", "setting": "[3]; 30 mg/kg", "value": "significantly greater Ki-67 suppression than sorafenib"}, {"measurement": "tumor cell density and necrosis (H&E staining)", "setting": "[3]; 30 mg/kg", "value": "substantial decrease in cell density and necrosis"}, {"measurement": "tumor volume reduction compared with sorafenib", "setting": "[3]; 30 mg/kg", "value": "outperforming sorafenib"}, {"measurement": "tumor weight reduction compared with sorafenib", "setting": "[3]; 30 mg/kg", "value": "outperforming sorafenib"}, {"measurement": "Bax expression in tumor (western blot)", "setting": "[3]; 30 mg/kg, vs control", "value": "increase in the expression"}, {"measurement": "Bcl-2 expression in tumor (western blot)", "setting": "[3]; 30 mg/kg, vs control", "value": "significantly attenuated"}, {"measurement": "EGFR expression in tumor (western blot)", "setting": "[3]; 30 mg/kg, vs control", "value": "significantly attenuated"}, {"measurement": "c-Myc expression in tumor (western blot)", "setting": "[3]; 30 mg/kg, vs control", "value": "significantly attenuated"}, {"measurement": "Ki-67 expression in tumor (IHC)", "setting": "[3]; 15 and 30 mg/kg", "value": "inhibition of Ki-67 expression"}, {"measurement": "tumor growth inhibition", "setting": "[3]; 15 and 30 mg/kg", "value": "significantly inhibited tumor growth"}, {"measurement": "tumor cellularity (H&E staining)", "setting": "[3]; [5]", "value": "marked reduction in tumor cellularity"}, {"measurement": "tumor volume", "setting": "[3]; [6]", "value": "marked reduction"}, {"measurement": "tumor weight", "setting": "[3]; [6]", "value": "marked reduction"}, {"measurement": "gross anatomical examination of vital organs", "setting": "[3]; [7]", "value": "maintained tissue morphology comparable to the vehicle control"}, {"measurement": "histopathology of vital organs (H&E)", "setting": "[3]; [7]", "value": "no histological abnormalities were observed"}, {"measurement": "body weight", "setting": "[3]; oral gavage daily, 20 days, ZAK-I-57 15 and 30 mg/kg, sorafenib 30 mg/kg", "value": "no significant changes"}, {"measurement": "percentage of tumor growth", "setting": "[4]; 15 mg/kg and 30 mg/kg, vs vehicle control", "value": "markedly diminished"}, {"measurement": "Bax expression in tumor (western blot)", "setting": "[4]; 30 mg/kg", "value": "significantly upregulating"}, {"measurement": "Bcl-2 expression in tumor (western blot)", "setting": "[4]; 30 mg/kg", "value": "downregulating"}, {"measurement": "EGFR expression in tumor (western blot)", "setting": "[4]; 30 mg/kg", "value": "downregulated"}, {"measurement": "Ki-67 suppression compared with sorafenib", "setting": "[4]; 30 mg/kg", "value": "significantly greater Ki-67 suppression than sorafenib"}, {"measurement": "c-Myc expression in tumor (western blot)", "setting": "[4]; 30 mg/kg", "value": "downregulated"}, {"measurement": "tumor cell density and necrosis (H&E staining)", "setting": "[4]; 30 mg/kg", "value": "substantial decrease in cell density and necrosis"}, {"measurement": "tumor volume reduction compared with sorafenib", "setting": "[4]; 30 mg/kg", "value": "outperforming sorafenib"}, {"measurement": "tumor weight", "setting": "[4]; 30 mg/kg", "value": "significant reduction; also recorded: outperforming sorafenib"}, {"measurement": "Ki-67 expression in tumor (IHC)", "setting": "[4]; 15 and 30 mg/kg", "value": "inhibition of Ki-67 expression"}, {"measurement": "tumor progression (tumor volume)", "setting": "[4]; 15 and 30 mg/kg", "value": "significantly inhibited tumor progression in a dose-dependent manner"}, {"measurement": "body weight", "setting": "[4]; ZAK-I-57 15 and 30 mg/kg, sorafenib 30 mg/kg", "value": "no significant difference"}, {"measurement": "tumor cellularity (H&E staining)", "setting": "[4]; [5]", "value": "marked reduction in tumor cellularity"}, {"measurement": "gross anatomical examination of vital organs", "setting": "[4]; [7]", "value": "maintained tissue morphology comparable to the vehicle control"}, {"measurement": "histopathology of vital organs (H&E)", "setting": "[4]; [7]", "value": "no histological abnormalities were observed"}]}]}
